PubChem BioAssay AID1963874 (Molecular Pharmacology Branch, DTP, NCI, 2024)
pIC50: −log10 of the molar value.

System: 253994-281-T-J1-PDC KRAS-mutant spheroids with HUVEC/MSC, viability
Assay: Anticancer human tumor 253994-281-T-J1-PDC patient-derived colorectal carcinoma cell line growth inhibition [KRAS2]
Conditions: for pIC50: curve of first compound; for viability, T/C: stronger effect = lower value
How it was run: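 KRAS-mutant tumor cells were grown as spheroids with HUVEC endothelial cells and human MSCs as stroma. Targeted agents were tested alone and with KRAS pathway inhibitors. Doses started at or near clinical Cmax, or 10 microM, descending half-log.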

[1] = second compound 0.1 µM, first compound 0.0316 µM
[2] = second compound 0.1 µM, first compound 0.1 µM
[3] = second compound 0.1 µM, first compound 0.316 µM
[4] = second compound 0.1 µM, first compound 1 µM
[5] = second compound 0.1 µM, first compound 3.16 µM
[6] = second compound 0.1 µM, first compound 10 µM
[7] = second compound 0.316 µM, first compound 0.0316 µM
[8] = second compound 0.316 µM, first compound 0.1 µM
[9] = second compound 0.316 µM, first compound 0.316 µM
[10] = second compound 0.316 µM, first compound 1 µM
[11] = second compound 0.316 µM, first compound 3.16 µM
[12] = second compound 0.316 µM, first compound 10 µM
[13] = second compound 1 µM, first compound 0.0316 µM
[14] = second compound 1 µM, first compound 0.1 µM
[15] = second compound 1 µM, first compound 0.316 µM
[16] = second compound 1 µM, first compound 1 µM
[17] = second compound 1 µM, first compound 3.16 µM
[18] = second compound 1 µM, first compound 10 µM
[19] = second compound 3.16 µM, first compound 0.0316 µM
[20] = second compound 3.16 µM, first compound 0.1 µM
[21] = second compound 3.16 µM, first compound 0.316 µM
[22] = second compound 3.16 µM, first compound 1 µM
[23] = second compound 3.16 µM, first compound 3.16 µM
[24] = second compound 3.16 µM, first compound 10 µM
[25] = second compound 10 µM, first compound 0.0316 µM
[26] = second compound 10 µM, first compound 0.1 µM
[27] = second compound 10 µM, first compound 0.316 µM
[28] = second compound 10 µM, first compound 1 µM
[29] = second compound 10 µM, first compound 3.16 µM
[30] = second compound 10 µM, first compound 10 µM
[31] = second compound 0.1 µM, first compound 0.00316 µM
[32] = second compound 0.1 µM, first compound 0.01 µM
[33] = second compound 0.316 µM, first compound 0.00316 µM
[34] = second compound 0.316 µM, first compound 0.01 µM
[35] = second compound 1 µM, first compound 0.00316 µM
[36] = second compound 1 µM, first compound 0.01 µM
[37] = second compound 3.16 µM, first compound 0.00316 µM
[38] = second compound 3.16 µM, first compound 0.01 µM
[39] = second compound 10 µM, first compound 0.00316 µM
[40] = second compound 10 µM, first compound 0.01 µM
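Note: spheroids exposed to agents for seven days before readout.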
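Throughout, for viability, T/C: percent of DMSO vehicle control viability.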

CC(C)NCC(C(=O)N1CCN(c2ncnc3c2C(C)CC3O)CC1)c1ccc(Cl)cc1 (stereo not given) + C=CC(=O)N1CCN(c2nc(=O)n(-c3c(C)ccnc3C(C)C)c3nc(-c4c(O)cccc4F)c(F)cc23)C(C)C1
pIC50 (second compound 0.1 µM): < 5.00
pIC50 (second compound 0.316 µM): < 5.00
pIC50 (second compound 1 µM): < 5.00
pIC50 (second compound 3.16 µM): < 5.00
pIC50 (second compound 10 µM): < 5.00
viability, T/C [1]: 108%
viability, T/C [2]: 95.9%
viability, T/C [3]: 98.6%
viability, T/C [4]: 109%
viability, T/C [5]: 102%
viability, T/C [6]: 86.4%
viability, T/C [7]: 107%
viability, T/C [8]: 105%
viability, T/C [9]: 99.7%
viability, T/C [10]: 92.2%
viability, T/C [11]: 84.8%
viability, T/C [12]: 91.6%
viability, T/C [13]: 103%
viability, T/C [14]: 119%
viability, T/C [15]: 99.9%
viability, T/C [16]: 99.5%
viability, T/C [17]: 88.9%
viability, T/C [18]: 92.8%
viability, T/C [19]: 114%
viability, T/C [20]: 106%
viability, T/C [21]: 105%
viability, T/C [22]: 87.2%
viability, T/C [23]: 78%
viability, T/C [24]: 79.5%
viability, T/C [25]: 95.3%
viability, T/C [26]: 97.9%
viability, T/C [27]: 103%
viability, T/C [28]: 103%
viability, T/C [29]: 73.9%
viability, T/C [30]: 104%

CC1(C)CCC(CN2CCN(c3ccc(C(=O)NS(=O)(=O)c4ccc(NCC5CCOCC5)c([N+](=O)[O-])c4)c(Oc4cnc5[nH]ccc5c4)c3)CC2)=C(c2ccc(Cl)cc2)C1 + C=CC(=O)N1CCN(c2nc(=O)n(-c3c(C)ccnc3C(C)C)c3nc(-c4c(O)cccc4F)c(F)cc23)C(C)C1
pIC50 (second compound 0.1 µM): < 5.00
pIC50 (second compound 0.316 µM): < 5.00
pIC50 (second compound 1 µM): < 5.00
pIC50 (second compound 3.16 µM): < 5.00
pIC50 (second compound 10 µM): < 5.00
viability, T/C [1]: 107%
viability, T/C [2]: 92.5%
viability, T/C [3]: 100%
viability, T/C [4]: 99.5%
viability, T/C [5]: 93.3%
viability, T/C [6]: 78.8%
viability, T/C [7]: 96.6%
viability, T/C [8]: 92.9%
viability, T/C [9]: 100%
viability, T/C [10]: 98.8%
viability, T/C [11]: 87.3%
viability, T/C [12]: 71.5%
viability, T/C [13]: 100%
viability, T/C [14]: 105%
viability, T/C [15]: 107%
viability, T/C [16]: 100%
viability, T/C [17]: 88.1%
viability, T/C [18]: 62.7%
viability, T/C [19]: 97.3%
viability, T/C [20]: 99.9%
viability, T/C [21]: 88.8%
viability, T/C [22]: 96.3%
viability, T/C [23]: 84.8%
viability, T/C [24]: 77.9%
viability, T/C [25]: 105%
viability, T/C [26]: 98.3%
viability, T/C [27]: 94.4%
viability, T/C [28]: 89.2%
viability, T/C [29]: 87.9%
viability, T/C [30]: 83.3%

CCN1CCN(Cc2ccc(Nc3ncc(F)c(-c4cc(F)c5nc(C)n(C(C)C)c5c4)n3)nc2)CC1 + C=CC(=O)N1CCN(c2nc(=O)n(-c3c(C)ccnc3C(C)C)c3nc(-c4c(O)cccc4F)c(F)cc23)C(C)C1
pIC50 (second compound 0.1 µM): < 6.00
pIC50 (second compound 0.316 µM): < 6.00
pIC50 (second compound 1 µM): < 6.00
pIC50 (second compound 3.16 µM): 6.07
pIC50 (second compound 10 µM): 6.15
viability, T/C [31]: 89.8%
viability, T/C [32]: 92.3%
viability, T/C [1]: 84.2%
viability, T/C [2]: 79.2%
viability, T/C [3]: 73.9%
viability, T/C [4]: 52.5%
viability, T/C [33]: 86.8%
viability, T/C [34]: 99.2%
viability, T/C [7]: 87.1%
viability, T/C [8]: 94.8%
viability, T/C [9]: 74.9%
viability, T/C [10]: 50.4%
viability, T/C [35]: 95.8%
viability, T/C [36]: 94.2%
viability, T/C [13]: 89.5%
viability, T/C [14]: 81.4%
viability, T/C [15]: 76.7%
viability, T/C [16]: 50.6%
viability, T/C [37]: 103%
viability, T/C [38]: 101%
viability, T/C [19]: 88.1%
viability, T/C [20]: 90.8%
viability, T/C [21]: 79.5%
viability, T/C [22]: 44.6%
viability, T/C [39]: 95.1%
viability, T/C [40]: 107%
viability, T/C [25]: 93.2%
viability, T/C [26]: 97.6%
viability, T/C [27]: 79.3%
viability, T/C [28]: 37%

Cn1ncnc1[C@H]1c2n[nH]c(=O)c3cc(F)cc(c23)N[C@@H]1c1ccc(F)cc1 + C=CC(=O)N1CCN(c2nc(=O)n(-c3c(C)ccnc3C(C)C)c3nc(-c4c(O)cccc4F)c(F)cc23)C(C)C1
pIC50 (second compound 0.1 µM): < 7.00
pIC50 (second compound 0.316 µM): < 7.00
pIC50 (second compound 1 µM): < 7.00
pIC50 (second compound 3.16 µM): < 7.00
pIC50 (second compound 10 µM): < 7.00
viability, T/C (second compound 0.1 µM, first compound 0.000316 µM): 113%
viability, T/C (second compound 0.1 µM, first compound 0.001 µM): 94.8%
viability, T/C [31]: 99.7%
viability, T/C [32]: 102%
viability, T/C [1]: 96.5%
viability, T/C [2]: 92.2%
viability, T/C (second compound 0.316 µM, first compound 0.000316 µM): 113%
viability, T/C (second compound 0.316 µM, first compound 0.001 µM): 102%
viability, T/C [33]: 96.6%
viability, T/C [34]: 101%
viability, T/C [7]: 97.1%
viability, T/C [8]: 92.8%
viability, T/C (second compound 1 µM, first compound 0.000316 µM): 99.9%
viability, T/C (second compound 1 µM, first compound 0.001 µM): 105%
viability, T/C [35]: 97.9%
viability, T/C [36]: 92.1%
viability, T/C [13]: 114%
viability, T/C [14]: 103%
viability, T/C (second compound 3.16 µM, first compound 0.000316 µM): 97.7%
viability, T/C (second compound 3.16 µM, first compound 0.001 µM): 109%
viability, T/C [37]: 107%
viability, T/C [38]: 89.1%
viability, T/C [19]: 111%
viability, T/C [20]: 99.5%
viability, T/C (second compound 10 µM, first compound 0.000316 µM): 116%
viability, T/C (second compound 10 µM, first compound 0.001 µM): 106%
viability, T/C [39]: 94.3%
viability, T/C [40]: 96%
viability, T/C [25]: 91.6%
viability, T/C [26]: 96.8%
